Laboratory results published in ChEMBL document CHEMBL3813624, “Discovery of hydroxyl 1,2-diphenylethanamine analogs as potent cholesterol ester transfer protein inhibitors” (Bioorg Med Chem Lett, 2016).
Values after ≈ are worked out from the molar mass of the structure shown. Active and inactive are the calls of the source. The calls are words filed in the database; no cut-off is given here.

Tests used:
[1] = molecular target: T1, Cholesteryl ester transfer protein (Homo sapiens, UniProt P11597); assay: Inhibition of CETP in human whole plasma assessed as reduction in [3H]cholesteryl ester transfer from [3H]CE-HDL to LDL/VLDL; format: cell-free
T1 sequence (P11597 whole entry): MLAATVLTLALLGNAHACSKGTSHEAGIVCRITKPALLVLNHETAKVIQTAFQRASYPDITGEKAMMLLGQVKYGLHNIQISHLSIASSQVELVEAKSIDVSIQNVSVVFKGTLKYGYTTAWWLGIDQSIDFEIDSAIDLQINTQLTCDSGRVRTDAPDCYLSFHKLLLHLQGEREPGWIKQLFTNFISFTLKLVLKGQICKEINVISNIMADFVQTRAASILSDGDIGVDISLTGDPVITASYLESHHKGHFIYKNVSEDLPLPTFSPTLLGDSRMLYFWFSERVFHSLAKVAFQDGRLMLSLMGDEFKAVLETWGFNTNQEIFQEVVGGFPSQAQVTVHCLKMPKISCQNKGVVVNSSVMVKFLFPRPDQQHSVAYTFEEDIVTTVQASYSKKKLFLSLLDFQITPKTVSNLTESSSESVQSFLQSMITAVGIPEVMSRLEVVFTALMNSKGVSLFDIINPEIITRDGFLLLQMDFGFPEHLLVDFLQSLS

[2] = molecular target: Voltage-gated inwardly rectifying potassium channel KCNH2 (Homo sapiens, UniProt Q12809); assay: Inhibition of recombinant human ERG flux expressed in HEK293 cells by patch clamp assay; format: cell-based
[3] = molecular target: T1, Cholesteryl ester transfer protein; assay: Inhibition of human recombinant CETP assessed as reduction in [3H]cholesteryl ester transfer from [3H]CE-HDL to biotinylated LDL by scintillation proximity assay
[4] = Aqueous solubility of compound; format: physicochemical; conditions: buffer
[5] = Metabolic stability in human liver microsomes assessed as compound remaining at 3 uM after 10 mins by UV absorbance method; format: ADME; conditions: read-out: Stability
[6] = test system: Oryctolagus cuniculus; assay: Cardiotoxicity in rabbit assessed as QT prolongation up to 10 mg/kg by electrophysiology method; format: toxicity, organism-based; conditions: in vivo
[7] = Plasma concentration in dual transgenic mouse expressing human CETP/ApoB-100 at 30 mg/kg, po measured at 2 hrs post dose; format: ADME, organism-based
[8] = Ratio of plasma concentration in dual transgenic mouse expressing human CETP/ApoB-100 at 30 mg/kg, po measured at 4 hrs post dose to IC50 for CETP in human whole plasma; format: ADME, organism-based; conditions: in vivo
[9] = test system: Oryctolagus cuniculus; assay: Cardiotoxicity in rabbit assessed as QRS prolongation at 30 mg/kg by electrophysiology method; format: toxicity, organism-based; conditions: in vivo
[10] = Ratio of plasma concentration in dual transgenic mouse expressing human CETP/ApoB-100 at 30 mg/kg, po measured at 2 hrs post dose to IC50 for CETP in human whole plasma; format: ADME, organism-based; conditions: in vivo
[11] = test system: Oryctolagus cuniculus; assay: Cardiotoxicity in rabbit assessed as changes in QTcv interval up to 10 mg/kg by electrophysiology method; format: toxicity, organism-based; conditions: in vivo
[12] = molecular target: T2, hERG (KCNH2) (Homo sapiens, UniProt Q12809); assay: Inhibition of recombinant human ERG expressed in HEK293 cells assessed as inhibition of peak tail current at 1 uM by patch clamp assay relative to control; format: cell-based; conditions: HEK293 cells expressing recombinant human ERG
[13] = AUC (0 to 8 hrs) in dual transgenic mouse plasma expressing human CETP/ApoB-100 at 30 mg/kg, po; format: ADME, organism-based; set-up: dose 30 mg/kg, time < 8 hr, route oral
[14] = test system: Oryctolagus cuniculus; assay: Cardiotoxicity in rabbit assessed as changes in QTcf interval up to 10 mg/kg by electrophysiology method; format: toxicity, organism-based; conditions: in vivo
[15] = test system: Oryctolagus cuniculus; assay: Cardiotoxicity in rabbit assessed as QT prolongation at 30 mg/kg by electrophysiology method; format: toxicity, organism-based; conditions: in vivo
[16] = Plasma concentration in dual transgenic mouse expressing human CETP/ApoB-100 at 30 mg/kg, po measured at 4 hrs post dose; format: ADME, organism-based
[17] = test system: Oryctolagus cuniculus; assay: Cardiotoxicity in rabbit assessed as changes in QT interval up to 10 mg/kg by electrophysiology method; format: toxicity, organism-based; conditions: in vivo
[18] = molecular target: T2, hERG (KCNH2); assay: Inhibition of recombinant human ERG expressed in HEK293 cells assessed as inhibition of peak tail current at 3 uM by patch clamp assay relative to control; format: cell-based; conditions: HEK293 cells expressing recombinant human ERG
[19] = Metabolic stability in mouse liver microsomes assessed as compound remaining at 3 uM after 10 mins by UV absorbance method; format: ADME; conditions: read-out: Stability
[20] = Plasma concentration in dual transgenic mouse expressing human CETP/ApoB-100 at 30 mg/kg, po measured at 8 hrs post dose; format: ADME, organism-based
[21] = Metabolic stability in rat liver microsomes assessed as compound remaining at 3 uM after 10 mins by UV absorbance method; format: ADME; conditions: read-out: Stability
[22] = test system: Mus musculus; assay: In vivo inhibition of human CETP-mediated [3H]cholesteryl ester transfer in human CETP expressed transgenic mouse coexpressing ApoB-100 at 30 mg/kg, po measured at 2 to 8 hrs post dose; format: functional, organism-based

T2 sequence (Q12809 whole entry): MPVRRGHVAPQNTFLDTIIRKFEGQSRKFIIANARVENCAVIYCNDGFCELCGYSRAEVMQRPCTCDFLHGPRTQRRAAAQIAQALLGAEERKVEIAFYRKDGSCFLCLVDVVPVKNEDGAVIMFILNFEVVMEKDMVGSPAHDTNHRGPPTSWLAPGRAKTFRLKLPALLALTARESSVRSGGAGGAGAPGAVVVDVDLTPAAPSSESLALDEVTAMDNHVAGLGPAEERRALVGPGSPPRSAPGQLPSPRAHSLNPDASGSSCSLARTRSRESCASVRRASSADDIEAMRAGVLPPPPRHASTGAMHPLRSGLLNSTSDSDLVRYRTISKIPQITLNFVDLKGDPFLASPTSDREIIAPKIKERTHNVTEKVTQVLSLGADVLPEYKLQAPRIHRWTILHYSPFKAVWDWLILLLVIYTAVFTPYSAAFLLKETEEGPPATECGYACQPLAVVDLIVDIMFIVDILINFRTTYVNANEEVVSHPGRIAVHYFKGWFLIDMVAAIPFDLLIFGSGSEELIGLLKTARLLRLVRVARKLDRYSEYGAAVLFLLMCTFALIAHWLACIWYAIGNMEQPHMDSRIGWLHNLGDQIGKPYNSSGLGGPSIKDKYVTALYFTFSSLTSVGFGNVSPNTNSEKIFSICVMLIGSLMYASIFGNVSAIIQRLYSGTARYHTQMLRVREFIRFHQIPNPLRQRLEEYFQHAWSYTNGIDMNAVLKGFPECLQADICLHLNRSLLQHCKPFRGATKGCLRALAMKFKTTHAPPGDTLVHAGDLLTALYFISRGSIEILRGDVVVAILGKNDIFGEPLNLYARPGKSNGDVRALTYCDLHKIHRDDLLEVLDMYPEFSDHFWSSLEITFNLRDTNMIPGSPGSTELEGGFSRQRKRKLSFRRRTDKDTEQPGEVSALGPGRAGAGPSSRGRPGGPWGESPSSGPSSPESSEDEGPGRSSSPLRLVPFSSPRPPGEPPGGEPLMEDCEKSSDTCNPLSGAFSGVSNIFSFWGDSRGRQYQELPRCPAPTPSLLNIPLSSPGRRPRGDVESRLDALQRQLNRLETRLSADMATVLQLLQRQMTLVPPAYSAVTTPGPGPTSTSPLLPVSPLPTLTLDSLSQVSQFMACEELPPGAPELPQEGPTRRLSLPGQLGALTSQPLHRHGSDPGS
Sequence of Voltage-gated inwardly rectifying potassium channel KCNH2 (Q12809 whole entry): as above

Molecule CC(C)Oc1cc([C@@](Cc2ccccc2)(NC[C@@H](O)CC(F)(F)F)c2cc(F)cc(OC(F)(F)C(F)F)c2)ccc1F has an IC50 [1] of 169 nM, an IC50 [2] of 23000 nM and an IC50 [3] of 2.5 nM.

With O=C(CN[C@@](Cc1ccccc1)(c1cc(F)cc(C(F)(F)F)c1)c1ccc(Cl)cn1)CC(F)(F)F the solubility [4] was less than 1 µg/mL, the IC50 [1] was 30000 nM and the IC50 [3] was 641 nM.

In the case of O[C@H](CN[C@@](Cc1ccccc1)(c1cc(F)cc(OC(F)(F)C(F)F)c1)c1ccc(Cl)cn1)C(F)(F)F, the remaining at 10 min, 3 µM [5] is reported as 100%, the Activity [6] is reported as “Non-toxic” and the concentration at 2 h [7] is reported as 5200 nM. For the same molecule, the IC50 [1] was 900 nM, the Ratio [8] was 3.3 and the Activity [9] was “Toxic”. The Ratio [10] was 5.7, the Activity [11] was “Non-toxic” and the inhibition at 1 µM [12] was 43%. For the same molecule, the AUC(0-t) at 8 h [13] was 26.9 µM·h, the IC50 [3] was 14 nM and the Activity [14] was “Non-toxic”. The Activity [15] was “Toxic”, the concentration at 4 h [16] was 3000 nM and the Activity [17] was “Non-toxic”. For the same molecule, the inhibition at 3 µM [18] was 87%, the remaining at 10 min, 3 µM [19] was 88% and the concentration at 8 h [20] was 1300 nM. For the same molecule, the remaining at 10 min, 3 µM [21] was 84% and the inhibition [22] was “Active”.

For OC[C@H](O)CN[C@@](Cc1ccccc1)(c1cc(F)cc(C(F)(F)F)c1)c1ccc(Cl)cn1, the solubility [4] was 44 µg/mL (≈ 93.8 µM) and the IC50 [3] was 8530 nM.

O[C@H](CN[C@@](Cc1ccccc1)(c1cc(F)cc(C(F)(F)F)c1)c1ccc(Cl)cn1)C(F)(F)F gave a remaining at 10 min, 3 µM [5] of 100%, a solubility [4] of less than 1 µg/mL and an IC50 [1] of 1600 nM. The IC50 [3] was 22 nM, the remaining at 10 min, 3 µM [19] was 95% and the remaining at 10 min, 3 µM [21] was 88%.

For CO[C@H](CN[C@@](Cc1ccccc1)(c1cc(F)cc(C(F)(F)F)c1)c1ccc(Cl)cn1)C(F)(F)F, the solubility [4] was less than 1 µg/mL, the IC50 [1] was 48000 nM and the IC50 [3] was 253 nM.

Work on OC(CN[C@@](Cc1ccccc1)(c1cc(F)cc(OC(F)(F)C(F)F)c1)c1ccc(Cl)cn1)CC(F)(F)F (some centres undefined) yielded a remaining at 10 min, 3 µM [5] of 100%, a concentration at 2 h [7] of 5400 nM and an IC50 [1] of 600 nM. For the same molecule, the AUC(0-t) at 8 h [13] was 18.1 µM·h, the IC50 [3] was 1.5 nM and the concentration at 4 h [16] was 2600 nM. The remaining at 10 min, 3 µM [19] was 88%, the concentration at 8 h [20] was 490 nM and the remaining at 10 min, 3 µM [21] was 87%.

In the case of OC[C@@H](O)CN[C@@](Cc1ccccc1)(c1cc(F)cc(C(F)(F)F)c1)c1ccc(Cl)cn1, the solubility [4] is reported as 37 µg/mL (≈ 78.9 µM), the IC50 [1] is reported as 98000 nM and the IC50 [3] is reported as 3100 nM.
